Article PMC8113290, “[^11C]MODAG-001—towards a PET tracer targeting α-synuclein aggregates” (European Journal of Nuclear Medicine and Molecular Imaging, 2020)
Read-outs that look alike come from different tables or passages of the source. Marks after values point to notes of the source that are not given here. Blank lines part the entries; values can stand above or below the molecule they belong to.

What was measured:
[1] = In vivo PET imaging in mice (brain uptake); settings: mouse, i.v. injection, one exemplary animal
Description: PET imaging was performed on a dedicated small animal Inveon PET scanner (Siemens Healthcare, Knoxville (TN), USA). Mice and rats were anesthetized with 1.5–1.7% isoflurane evaporated in 100% oxygen at a flow rate of 0.8 L/min, which was maintained during the entire experiment. After a tail vein catheter was placed, the animal was positioned in the center of the field of view (FOV) on an MR-compatible PET bed that was connected to a feedback temperature control unit set to 37 °C. Mice were injected intravenously (i.v.) with 17 ± 2 MBq [^11C]MODAG-001 (n = 3) or 12 ± 1 MBq (d3)-[^11C]MODAG-001 (n = 5) 5 s after the start of the PET acquisition. […]
Whole body mouse PET scans were coregistered to the whole body MR scan, which was sequentially acquired after the PET scan, and the volumes of interest (VOIs) of the lung, liver, heart, brain, and kidneys were drawn by hand based on the MR anatomical information using PMOD software (version 3.2; PMOD Technologies, Zürich, Switzerland). VOIs of different brain regions were extracted using the mouse or rat brain atlas provided by PMOD [10-12], and tissue time activity curves (TACs) were calculated and are expressed as standardized uptake values (SUVs), which were calculated as follows: SUV(t) = radioactivity concentration (kBq/mL of the organ)/(injected dose [kBq]/body weight [g]). […]

[2] = Radio-metabolite analysis in mouse plasma and brain by radio-HPLC; format: in vivo; settings: for M3 % / M3 %ID: metabolite 3; for M2* % / M2* %ID: mixture of various metabolites
Description: For metabolite analysis, mice were i.v. injected with 91 ± 24 MBq of [^11C]MODAG-001 (n = 4 per time point) or 120 ± 41 MBq of (d3)-[^11C]MODAG-001 (n = 3 per time point) using a tail vein catheter. Five and 15 min after injection, plasma and brain homogenates were analyzed using radio-HPLC (for detailed information see supplemental material and methods section).
A 400 µL blood sample was collected by heart puncture five or 15 minutes after tracer injection. The blood was centrifuged at 17,000 x g and 4 °C for two minutes, and the plasma was transferred to a 1.5 mL reaction tube on ice for further analysis. After blood collection, mice were transcardially perfused (10 mL/min) with 20 mL of ice-cold PBS, and the brain of each mouse was removed from the skull. The brain was transferred to a glass tube (2 mL Dounce tissue grinder set, Sigma Aldrich Chemie GmbH) containing 0.5 mL of ice-cold PBS, sequentially homogenized using large and small clearance pestles and transferred to a 1.5 mL reaction tube on ice for further analysis. Plasma or brain homogenate was mixed 1:1 with acetonitrile and briefly centrifuged. After two minutes of incubation on ice, each mixture was centrifuged at room temperature for 1.5 minutes at 12,000 x g (MiniSpin®, Eppendorf AG) to remove precipitated proteins. The supernatant was subjected to reversed-phase HPLC on a Luna Phenyl Hexyl column (5 µm, 100 Å, 300 mm x 4.6 mm, Phenomenex) equipped with a radioactivity detector with 0.1 % trifluoroacetic acid in water/acetonitrile (70:30) at an isocratic flow rate of 1.5 mL/min.
For data analysis, the median of ten consecutive data points was calculated to remove noise; data were corrected for radioactive decay to time zero, defined as start of the HPLC of the five minute brain sample. This time zero radioactivity was plotted against time using Origin software (OriginLab Corporation, version 9.1G, Northampton, MA, USA). The area under the curve was calculated in % using the peak analyzer function and scaled up that the peaks add up to 100 %. The area under the curve was transformed into radioactivity values using a standard of [^11C]MODAG-001 with known radioactivity also corrected for decay and expressed as % injected radioactivity dose (%ID) per gram of brain tissue or per plasma in one mL of blood.

[3] = biological target: T1, αSYN fibrils inoculated into the right striatum (Homo sapiens, UniProt P37840); test: In vivo PET imaging in αSYN fibril-inoculated rats; design: species or system rat; settings: for mean distribution volume ratio (DVR)-1 40-60min (binding potential): 4 days post inoculation
T1 construct: made in house; host or cells: E. coli BL21(DE3)pLys
Description: Rats were inoculated with αSYN fibrils (4 μL, 30 μM) into the right striatum (see supplementary material and methods section for a detailed description) and scanned 4 days post-inoculation with 23 ± 1 MBq of (d3)-[^11C]MODAG-001.
Data acquisition, correction, framing and reconstruction, volume of interest (VOI) definition, and determination of binding parameters are described in detail in the supplementary material and methods section.
Rats were allowed to adapt for two weeks in the animal facility before fibril injection. Three adult female rats were anaesthetized with an intraperitoneal (i.p.) injection of a mixture of fentanyl (0.005 mg/kg), midazolam (2 mg/kg), and medetomidine (0.15 mg/kg) at 1 mL/kg. The head of each rat was shaved, and the animal was placed into a stereotaxic frame. A central incision was made to expose the bregma and lambda. A 5 µL syringe needle (Hamilton Company, Reno (NV), USA) was enclosed with a glass capillary (inner diameter, 50 µm, Hilgenberg GmbH, Malsfeld, Germany). αSYN fibrils (4 µL, 30 µM) were injected using a stereotaxic injector (Stoelting, Wood Lane, IL, USA) through a drill hole into the right striatum (ML= -3.2 mm, AP = 0.0 mm, DV = -4.8 mm) according to the stereotaxic atlas of Paxinos and Watson [9][. Based on the volume of the right striatum (0.04 cm^3), the concentration of inoculated fibrils was calculated as 2.8 µM. As a negative control, 4 µL of vehicle (50 mM Tris base, 100 mM sodium chloride, 0.02 % sodium azide, pH 7.0) were injected into the contralateral striatum. A total fibril volume of 4 µL was obtained by the injection of 0.4 µL every 60 seconds. To allow for diffusion of the fibrils into the tissue, the needle was left in this position for five minutes. […]
Whole body mouse PET scans were coregistered to the whole body MR scan, which was sequentially acquired after the PET scan, and the volumes of interest (VOIs) of the lung, liver, heart, brain, and kidneys were drawn by hand based on the MR anatomical information using PMOD software (version 3.2; PMOD Technologies, Zürich, Switzerland). VOIs of different brain regions were extracted using the mouse or rat brain atlas provided by PMOD [10-12], and tissue time activity curves (TACs) were calculated and are expressed as standardized uptake values (SUVs), which were calculated as follows: SUV(t) = radioactivity concentration (kBq/mL of the organ)/(injected dose [kBq]/body weight [g]). […] Distribution volume ratio 1 (DVR-1) values were calculated from individual TACs from 40 to 60 minutes, using the vehicle-injected striatum as a reference region, with the following formula: activity in fibril inoculated right striatum/activity in vehicle injected left striatum) - 1. […]

recombinant αSYN fibrils = settings: cited from earlier work
αSYN and Aβ1–42 fibrils = tested on: αSYN and Aβ1–42 fibrils; design: method as in PMID 29989823; settings: similar rat model, despite good cerebral uptake and high Am ref 30; cited from earlier work
[4] = mouse brain, 5 min after injection
[5] = mouse brain, 5 min after injection, parent compound
[6] = mouse brain, 15 min after injection, metabolite 1
[7] = mouse brain, 15 min after injection
[8] = mouse brain, 15 min after injection, parent compound
[9] = mouse plasma, 5 min after injection, metabolite 1
[10] = mouse plasma, 5 min after injection
[11] = mouse plasma, 5 min after injection, parent compound
[12] = mouse plasma, 15 min after injection, metabolite 1
[13] = mouse plasma, 15 min after injection
[14] = mouse plasma, 15 min after injection, parent compound

peak standardized uptake value (SUV) in brain [1]: 1.7
M1 %ID ([2]; mouse brain, 5 min after injection, metabolite 1): 0.4* %ID per g brain tissue
M1 % ([2]; mouse brain, 5 min after injection, metabolite 1, % of radioactivity): 5%
M3 % [2, 4]: 2%
M3 %ID [2, 4]: 0.2* %ID per g brain tissue
P % [2, 5]: 93%
P %ID [2, 5]: 8.8 %ID per g brain tissue
M1 % [2, 6]: 5%
M1 %ID [2, 6]: 0.4* %ID per g brain tissue
M3 % [2, 7]: 8%
M3 %ID [2, 7]: 0.7* %ID per g brain tissue
P % [2, 8]: 87%
P %ID [2, 8]: 7.2 %ID per g brain tissue
M1 % [2, 9]: 21%
M1 %ID [2, 9]: 0.6^# %ID per plasma in 1 mL blood
M3 % [2, 10]: 6%
M3 %ID [2, 10]: 0.1^# %ID per plasma in 1 mL blood
M2* % [2, 10]: 34%
M2* %ID [2, 10]: 0.9^# %ID per plasma in 1 mL blood
P % [2, 11]: 39%
P %ID [2, 11]: 1.0^# %ID per plasma in 1 mL blood
M1 % [2, 12]: 30%
M1 %ID [2, 12]: 0.8^# %ID per plasma in 1 mL blood
M3 % [2, 13]: 4%
M3 %ID [2, 13]: 0.1^# %ID per plasma in 1 mL blood
M2* % [2, 13]: 36%
M2* %ID [2, 13]: 1.0^# %ID per plasma in 1 mL blood
P % [2, 14]: 30%
P %ID [2, 14]: 0.8^# %ID per plasma in 1 mL blood
mean distribution volume ratio (DVR)-1 40-60min (binding potential) ([3]; 70% automatic isocontour VOI, contralateral side as reference): 0.44 ± 0.21
peak SUV ([3]; left striatum of fibril-inoculated rats): 2.1 ± 0.1
peak SUV ([3]; non-injected control rat): 2.1
mean distribution volume ratio (DVR)-1 40-60min (binding potential) ([3]; whole striatum VOI, contralateral vehicle-injected striatum as reference): 0.14 ± 0.1
Compound: [2H]C([2H])([2H])N([11CH3])c1ccc(-c2cc(-c3ccnc(Br)c3)[nH]n2)cc1 [(d3)-[^11C]MODAG-001]

Compound: O=[N+]([O-])c1ccc2c(c1)Sc1cc(OC/C=C/I)ccc1N2 [[^125I]SIL23]
Kd (recombinant αSYN fibrils; recombinant αSYN fibrils ref 24): 148 nM

Compound: CN(C)c1ncc(C=Cc2nc3ccc(OCCF)cc3o2)s1 [[^18F]BF-227]
Kd (recombinant αSYN fibrils; recombinant αSYN fibrils ref 26): 9.6 nM
binding in vivo (αSYN and Aβ1–42 fibrils): no binding was observed in vivo

peak standardized uptake value (SUV) in brain [1]: 1.4
tissue uptake at 5 min ([2]; intravenous, mouse brain, 5 min after injection, parent compound, read-out: P %ID): 10.5 %ID/g
tissue uptake at 15 min ([2]; intravenous, mouse brain, 15 min after injection, parent compound, read-out: P %ID): 5.3 %ID/g
P % [2, 5]: 91%
P %ID [2, 5]: 10.5* %ID per g brain tissue
P % [2, 8]: 81%
P %ID [2, 8]: 5.3* %ID per g brain tissue
P % [2, 11]: 26%
P %ID [2, 11]: 0.8^# %ID per plasma in 1 mL blood
P % [2, 14]: 24%
P %ID [2, 14]: 0.7^# %ID per plasma in 1 mL blood
Compound: CN([11CH3])c1ccc(-c2cc(-c3ccnc(Br)c3)[nH]n2)cc1 [[^11C]MODAG-001]

Compound: CN(c1ccc(/C=C/c2nc3ccccc3o2)cc1)S(=O)(=O)c1ccccc1[18F] [[^18F]2FBox]
binding in vivo (αSYN and Aβ1–42 fibrils): no binding was observed in vivo
